Source: patent publication US8598342B2, “Methods and compounds for antimicrobial intervention” (President and Fellows of Harvard College, priority 2008, dated 2013)
Entries after “also recorded” stand apart in the source; their conditions may differ. Like-named read-outs stand apart in the source and are kept apart here.

Experiments:
[1] = tested on: wildtype S. aureus RN4220; assay: MIC / growth inhibition of wildtype S. aureus RN4220 (optical density); format: cell-based; conditions: Staphylococcus aureus
Procedure: (§1) (A) Targocil MIC data for a panel of Gram-positive strains, including MRSA clinical isolates B5271 and 5340A. Growth was monitored in triplicate after 12 h at 28° C. using optical density. (B) Two dimensional drug interaction analysis between tunicamycin and targocil grown for 18 h at 30° C. […] At higher concentrations, tunicamycin is toxic because it inhibits cell wall biosynthesis. […] Varying concentrations of drug were added to […] of S. aureus RN4220 after 5 h and cell count was monitored over time at 30° C. […] Cells were grown at 28° C. for 12 h and monitored for growth using optical density (OD600). Data were normalized to the DMSO controls for each strain. (E) Two classes of mutants were examined: phage resistant (m1 3) and phage sensitive (m4-5).
A library of 55,000 small molecules was screened in duplicate at a concentration of ˜40 μM against S. aureus RN4220 and the corresponding ΔtarO strain using optical density to monitor growth. We obtained 45 initial hits and confirmed three lead compounds that inhibited the growth of the wildtype strain but had no activity against the ΔtarO strain. […] (FIG. 16A and FIG. 18) (Lazarevic V, Abellan F X, Moller S B, Karamata D, & Mauel C (2002) Microbiology-Sgm 148:815-824)
On the night before screening, a single colony of each strain was grown in TSB (Cm 10). On the day of screening, 384 well plates (Corning® 3710) were filled with […] of TSB (Cm 10). […]
The following day the plates were read using a Perkin Elmer Envision plate reader for both OD600 and fluorescence at the appropriate wavelength for Gfp ([…]) and Mcherry ([…]). Data were collected and analyzed to identify compounds that killed the wildtype strain but not the ΔtanO mutant. […]
For a secondary screen, hits from the primary screen were evaluated against wildtype and the ΔtarO mutant as described above, but the compound was investigated using a four point dose-response curve starting at a concentration of 50 μM and doing two-fold serial dilutions. […]

B. subtilis 168 = assay: MIC panel of Gram-positive strains: B. subtilis 168; format: cell-based, Bacillus subtilis
Procedure: as §1

S. aureus TarL = molecular target: T1, S. aureus TarL (Staphylococcus aureus, UniProt Q2G1B8); assay: In vitro enzyme inhibition assay, TarL (radiometric); format: biochemical; conditions: targocil 50 μg/mL; enzyme 200 nM
T1 construct: made in house
T1 sequence (Q2G1B8 1-562): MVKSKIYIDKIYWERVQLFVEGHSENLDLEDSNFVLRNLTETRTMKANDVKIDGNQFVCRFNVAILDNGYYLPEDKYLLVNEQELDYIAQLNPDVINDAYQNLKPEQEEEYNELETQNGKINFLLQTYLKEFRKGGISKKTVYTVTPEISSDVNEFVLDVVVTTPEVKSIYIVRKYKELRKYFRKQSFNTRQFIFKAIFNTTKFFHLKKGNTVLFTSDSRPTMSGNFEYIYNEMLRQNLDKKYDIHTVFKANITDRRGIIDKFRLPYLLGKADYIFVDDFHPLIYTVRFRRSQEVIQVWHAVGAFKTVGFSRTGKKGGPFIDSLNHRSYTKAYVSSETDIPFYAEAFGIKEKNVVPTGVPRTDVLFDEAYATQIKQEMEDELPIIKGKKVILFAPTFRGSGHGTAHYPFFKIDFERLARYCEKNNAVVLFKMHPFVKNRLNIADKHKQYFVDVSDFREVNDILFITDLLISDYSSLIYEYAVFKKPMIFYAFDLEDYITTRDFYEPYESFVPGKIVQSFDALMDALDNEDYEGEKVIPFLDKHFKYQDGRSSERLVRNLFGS
Procedure: (A) TarL reaction with heat-treated enzyme; (B) TarL reaction with active enzyme; (C) TarL reaction with 5 μM targocil; (D) TarL reaction with 50 μM targocil; (E) TarL reaction with 100 μM targocil.
S. aureus TarB, D, F, I, and L were cloned, overexpressed and purified as described previously (S. Brown, Y. H. Zhang, S. Walker, Chemistry & Biology 15, 12, Jan. 2008.) Radiometric in vitro assays were run to test the inhibitory effects of targocil on Tar B, D, F, and L, while TarI was assayed for targocil inhibition using an HPLC assay using conditions similar to those previously reported (ibid). See below for exact reaction conditions. […] In each case, a reaction with no targocil served as a negative control (active enzymatic reaction) and a reaction with heat-treated enzyme served as a positive control (no enzymatic reaction). Targocil was incubated with all reaction components except the substrates at room temperature. After 10 minutes, substrates were added and the reactions were allowed to proceed for 60 minutes. The reactions were quenched with DMF and the products were imaged/monitored as previously described (ibid).
TarL in vitro inhibition assay protocol and data. Each 3 μL reaction contained 1 μM [14C] (GroP)2-ManNAc-β-(1,4)-GlcNAc-pp-farnesyl, 50 μM CDP-ribitol, 20 mM Tris base pH 7.5, 100 mM NaCl, 10 mM MgCl2, 200 nM TarL and either 5, 50, or 100 μM targocil. […]

[2] = tested on: S. aureus RN4220 TarG:W73C (m5); assay: MIC analysis of RN4220 carrying the mutant tarG allele TarG:W73C; format: cell-based, Staphylococcus aureus; conditions: mutant allele exchanged into RN4220
From the text: Therefore, we conclude that TarG is a target of targocil. […] (Davidson A L, Dassa E, Orelle C, & Chen J (2008) Microbiology and Molecular Biology Reviews 72:317-364) In addition to functioning as antibiotics, inhibitors such as targocil, and derivatives thereof, could be valuable tools for mechanistic and structural analyses of ABC transporters.

CCN(CC)c1nc2c(S(=O)(=O)c3ccccc3)nnn2c2ccc(Cl)cc12 [7-chloro-N,N-diethyl-3-(phenylsulfonyl)-[1,2,3]triazolo[1,5-a]quinazolin-5-amine]
MIC ([1]; read-out: minimum inhibitory concentration (MIC)): 1.3 µg/mL
MIC ([1]; result of the WTA inhibitor screen, read-out: minimum inhibitory concentration): ~3 µM
MIC ([1]; wildtype S. aureus RN4220, read-out: minimum inhibitory concentration (MIC)): 3 µM
susceptibility of B. subtilis 168 (B. subtilis 168): targocil resistance in B. subtilis 168
inhibition of TarL (S. aureus TarL): None of these enzymes was inhibited
resistance to targocil of TarG:W73C strain [2]: fully resistant; also recorded: confer resistance
